US7705065B2, “Photoinitiator functionalized with alkoxy groups” (Xerox Corporation, priority 2007, dated 2010)

Experiment: Solubility of about 10 wt % photoinitiator in alkoxy-containing curable monomers
Format: physicochemical
Settings: about 10 wt % solutions in each of SR9003, SR209, SR399LV and SR454; about room temperature (approximately 22° C. to 27° C.)
Description: The following monomers were used for testing: 1) SR9003 (propoxylated neopentyl glycol diacrylate), 2) SR209 (tetraethylene glycol dimethacrylate), 3) SR399LV (low viscosity dipentaerythritol pentacrylate esters), and 4) SR454 (ethoxylated trimethylolpropane triacrylate esters).

CC(C)(O)C(=O)c1ccc(OCCO)cc1 [IRGACURE® 2959, 4-(2-hydroxyethyloxy)phenyl-(2-hydroxy-2-propyl) ketone]
solubility in monomers: insoluble
